Reference: paper PMC11047712, “Synergistic Antioxidant and Anti-Inflammatory Effects of Phenolic Acid-Conjugated Glutamine–Histidine–Glycine–Valine (QHGV) Peptides Derived from Oysters (Crassostrea talienwhanensis)” (Antioxidants, 2024)

Assays:
[1] = system: inducible nitric oxide synthase (iNos) mRNA; assay: iNos mRNA expression in LPS-induced RAW 264.7 cells (qRT-PCR); type: cell-based, murine; conditions: peptide 500 μM pretreated 2 h, LPS 0.1 μg/mL 24 h, normalized to Gapdh, n = 3
Experimental: (§2) The peptide and control groups were pretreated with 500 and 0 μM of the peptide solution, respectively, for 2 h, followed by stimulation with 0.1 μg/mL of LPS for 24 h. Total cellular RNA was isolated using the RNeasy Mini Kit (Qiagen, Santa Clara, CA, USA). Total RNA was used to synthesize complementary DNA (cDNA) using the PrimeScript™ 1st strand cDNA synthesis kit (TaKaRa, Kusatsu, Japan). […] The mRNA levels of iNos, Cox-2, and Col1a1 were normalized to that of Gapdh, which is a housekeeping gene. The mRNA levels were quantified using the 2^-ddCt method based on the Ct values.

phospho-p38 = assay: LPS-induced phosphorylation of p38 in RAW 264.7 cells (Western blot); type: cell-based, murine; conditions: peptide 500 µM 2 h, LPS 0.1 μg/mL 15 min, densitometry relative to p38, n = 3
Experimental: HaCaT (3.0 × 10^5 cells/well) and RAW 264.7 (1.5 × 10^5 cells/well) cells were seeded in the wells of a six-well plate. HaCaT and RAW 264.7 cells were treated with the peptide solutions (500 µM) for 24 and 2 h, respectively, and then stimulated with LPS (0.1 μg/mL) for 15 min. The cells were then washed with cold PBS and lysed in a cold lysis buffer. Cell debris was removed after centrifugation at 12,000× g for 30 min at 4 °C. Protein concentration was determined using the bicinchoninic acid (BCA) protein assay. The four-times-concentrated protein-denaturing buffer (1.25 M Tris-HCl (pH 6.8), glycerol, SDS, 2-mercaptoethanol, and 0.4% bromophenol blue) was added to the cell lysate and the mixture was boiled at 100 °C for 5 min. Proteins were separated by electrophoresis on 10% (for MAPKs) or 12% (for collagen) sodium dodecyl sulfate-polyacrylamide gel and electroblotted onto polyvinylidene fluoride membranes. The membranes were blocked with 5% skimmed milk in Tris-buffered saline–Tween (TBS-T) at room temperature for 1 h. […] The band intensities of phospho-ERK, phospho-JNK, phospho-p38, and collagen I proteins were quantified by densitometric analysis using the ImageJ software 1.8.0 (National Institutes of Health, NIH, Bethesda, MD, USA). […]

phospho-ERK 1/2 = assay: LPS-induced phosphorylation of ERK in RAW 264.7 cells (Western blot); type: cell-based, murine; conditions: peptide 500 µM 2 h, LPS 0.1 μg/mL 15 min, densitometry relative to ERK, n = 3
Experimental: (§1) HaCaT (3.0 × 10^5 cells/well) and RAW 264.7 (1.5 × 10^5 cells/well) cells were seeded in the wells of a six-well plate. HaCaT and RAW 264.7 cells were treated with the peptide solutions (500 µM) for 24 and 2 h, respectively, and then stimulated with LPS (0.1 μg/mL) for 15 min. The cells were then washed with cold PBS and lysed in a cold lysis buffer. Cell debris was removed after centrifugation at 12,000× g for 30 min at 4 °C. Protein concentration was determined using the bicinchoninic acid (BCA) protein assay. The four-times-concentrated protein-denaturing buffer (1.25 M Tris-HCl (pH 6.8), glycerol, SDS, 2-mercaptoethanol, and 0.4% bromophenol blue) was added to the cell lysate and the mixture was boiled at 100 °C for 5 min. Proteins were separated by electrophoresis on 10% (for MAPKs) or 12% (for collagen) sodium dodecyl sulfate-polyacrylamide gel and electroblotted onto polyvinylidene fluoride membranes. The membranes were blocked with 5% skimmed milk in Tris-buffered saline–Tween (TBS-T) at room temperature for 1 h. After washing, the membranes were incubated overnight in respective primary antibody solutions (anti-phospho-ERK, anti-phospho-JNK, anti-phospho-p38, anti-collagen I, anti-GAPDH or anti-β-actin antibodies) at 4 °C. The membranes were washed with TBS-T and incubated with a horseradish peroxidase-conjugated secondary antibody solution for 1 h at room temperature. They were washed again with TBS-T and PBS and developed using an enhanced chemiluminescence reagent. Images of the immunoblots were scanned with an iBright™ CL1500 Imaging System (Thermo Fisher Scientific, Waltham, MA, USA). The band intensities of phospho-ERK, phospho-JNK, phospho-p38, and collagen I proteins were quantified by densitometric analysis using the ImageJ software 1.8.0 (National Institutes of Health, NIH, Bethesda, MD, USA). To normalize for protein loading, antibodies against β-actin and GAPDH were used, and phospho-ERK 1/2, phospho-JNK, and phospho-p38 phosphorylation levels were expressed relative to those of ERK, p38, and JNK, respectively. The levels of collagen I were normalized to those of GAPDH. Images of raw Western blots are shown in the Supplementary Data.

phospho-JNK = assay: LPS-induced phosphorylation of JNK in RAW 264.7 cells (Western blot); type: cell-based, murine; conditions: peptide 500 µM 2 h, LPS 0.1 μg/mL 15 min, densitometry relative to JNK, n = 3
Experimental: as §1, with “HaCaT and RAW 264.7 cells were treated with the peptide solutions (500 µM) for 24 and 2 h, respectively, and then stimulated with LPS (0.1 μg/mL) for 15 min.” left out, “The four-times-concentrated protein-denaturing buffer (1.25 M Tris-HCl (pH 6.8), glycerol, SDS, 2-mercaptoethanol, and 0.4% bromophenol blue) was added to the cell lysate and the mixture was boiled at 100 °C for 5 min. Proteins were separated by electrophoresis on 10% (for MAPKs) or 12% (for collagen) sodium dodecyl sulfate-polyacrylamide gel and electroblotted onto polyvinylidene fluoride membranes.” left out, “To normalize for protein loading, antibodies against β-actin and GAPDH were used, and phospho-ERK 1/2, phospho-JNK, and phospho-p38 phosphorylation levels were expressed relative to those of ERK, p38, and JNK, respectively.” left out

[2] = system: cyclooxygenase-2 (Cox-2) mRNA; assay: Cox-2 mRNA expression in LPS-induced RAW 264.7 cells (qRT-PCR); type: cell-based, murine; conditions: peptide 500 μM pretreated 2 h, LPS 0.1 μg/mL 24 h, normalized to Gapdh, n = 3
Experimental: as §2

[3] = ABTS radical scavenging activity test; type: biochemical; conditions: for Anti-oxidant Rank (ABTS radical scavenging activity rank) / IC50: Table S1; for Anti-oxidant Rank (ABTS radical scavenging activity rank): rank by IC50, 1 = most active; for IC50: tested 0.000001-1 mM, calculated by GraphPad Prism 5, unit inferred; for IC50 / ABTS radical scavenging activity: 5 min at room temperature, absorbance 734 nm; for ABTS antioxidant activity (in words): various concentrations between 0.000001 and 1 mM; for ABTS radical scavenging activity: 0.01 mM, n = 3
Experimental: The ABTS radical cation solution was prepared by mixing 1 mL of a 14 mM ABTS solution and 1 mL of 4.9 mM potassium persulfate. The mixture reacted in the dark at room temperature for 16 h. The ABTS solution was diluted with PBS (1:50, v/v), and 190 μL of it reacted with 10 μL of the sample solution in a 96-well plate at room temperature for 5 min. The absorbance at 734 nm was measured using a SpectraMax iD3 microplate reader (Molecular Devices, San Jose, CA, USA), and the ABTS radical scavenging activity rate was calculated using the following equation:ABTS radical scavenging activity (%) = 1 − (absorbance of sample/absorbance of water) × 100

[4] = DPPH radical scavenging activity test; type: biochemical; conditions: various concentrations; 0.1 mM DPPH, 30 min in the dark at room temperature, absorbance 517 nm
Experimental: The DPPH method is based on a mechanism similar to the ABTS method. […] In a 96-well plate, 100 μL of the DPPH solution and 100 μL of the sample were treated and incubated at room temperature in the dark for 30 min. Absorbance at 517 nm was then measured using a SpectraMax iD3 microplate reader (Molecular Devices, San Jose, CA, USA). The solvents used for the samples were methanol for peptide samples and ethanol for phenolic acid samples.

[5] = system: collagen type I alpha 1 chain (Col1a1) mRNA; assay: Collagen I (Col1a1) mRNA level in HaCaT cells (RT-PCR); type: cell-based, human; conditions: peptide 500 μM, normalized to Gapdh, n = 3
Experimental: The peptide and control groups were pretreated with 500 and 0 μM of the peptide solution, respectively, for 2 h, followed by stimulation with 0.1 μg/mL of LPS for 24 h. Total cellular RNA was isolated using the RNeasy Mini Kit (Qiagen, Santa Clara, CA, USA). Total RNA was used to synthesize complementary DNA (cDNA) using the PrimeScript™ 1st strand cDNA synthesis kit (TaKaRa, Kusatsu, Japan). The sequences of oligonucleotide primers for amplifying inducible nitric oxide synthase (iNos), cyclooxygenase-2 (Cox-2), and collagen type I alpha 1 chain (Col1a1) synthesized from Bioneer (Daejeon, Republic of Korea) and glyceraldehyde-3-phosphate dehydrogenase (Gapdh) synthesized from Macrogen (Seoul, Republic of Korea) are listed in Table 1. […] The mRNA levels of iNos, Cox-2, and Col1a1 were normalized to that of Gapdh, which is a housekeeping gene. The mRNA levels were quantified using the 2^-ddCt method based on the Ct values.

HaCaT cells = assay: Cell viability (MTT assay) in HaCaT cells; type: cell-based, human; conditions: 0.032-500 µM, 24 h
Experimental: Cell viability was assessed using an MTT assay. HaCaT cells (1.0 × 10^4 cells/mL) were seeded in a 96-well plate and cultured for 24 h. Thereafter, the cells were treated with the peptide solution (0–500 µM) for 24 h. […] The MTT solution was prepared by dissolving it in phosphate-buffered saline (PBS) at a concentration of 5 mg/mL. 10 μL of the prepared MTT solution was added to each well, and the plate was incubated for 4 h. After removing the culture medium, 200 μL of dimethyl sulfoxide (DMSO) was added to each well to solubilize any deposited formazan. The absorbance at 560 nm was measured using an Epoch microplate Spectrophotometer (BioTek, Winooski, VT, USA).

[6] = system: collagen I (COL1A1) protein; assay: Collagen I (COL1A1) protein level in HaCaT cells (Western blot); type: cell-based, human; conditions: peptide 500 µM, 24 h, Western blot densitometry normalized to GAPDH, n = 3
Experimental: as §1

[7] = system: intracellular ROS in RAW 264.7 cells; assay: LPS-induced intracellular ROS, DCFH-DA fluorescence, in RAW 264.7 cells; type: cell-based, murine; conditions: peptides and carnosine 500 μM pretreated 2 h, then LPS 0.1 μg/mL 24 h, n = 3
Experimental: RAW 264.7 cells (7.5 × 10^4 cells/mL) were seeded on sterile cover slips placed in the wells of a 12-well plate and cultured for 24 h. The cells were pretreated with peptide solutions (500 μM) and carnosine (500 μM) for 2 h and stimulated with LPS (0.1 μg/mL) for 24 h. Subsequently, they were treated with a 10 μM DCFH-DA solution for 30 min and washed with PBS. The washed cells were fixed with a 4% paraformaldehyde solution for 5 min, and intracellular ROS fluorescence was observed using a DMi8 inverted microscope (Leica, Wetzlar, Germany).

C[C@@H]1C[C@H]2[C@@H]3CCC4=CC(=O)C=C[C@]4(C)[C@@]3(F)[C@@H](O)C[C@]2(C)[C@@]1(O)C(=O)CO [DEX, Dexamethasone, reference compound]
reduction of LPS-induced iNos mRNA level [1]: approximately 80% | decrease of p-p38 level (phospho-p38): markedly reduced | decrease of p-ERK level (phospho-ERK 1/2): markedly reduced | decrease of p-JNK level (phospho-JNK): markedly reduced | reduction of LPS-induced Cox-2 mRNA level [2]: ~91%

O=C(O)c1cc(O)c(O)c(O)c1 [Gallic acid, gallic acid, reference compound]
Anti-oxidant Rank (ABTS radical scavenging activity rank) [3]: 1 | IC50 [3]: 2.49 µM | ABTS antioxidant activity (in words) [3]: highest antioxidant activity

O=C1O[C@H]([C@@H](O)CO)C(O)=C1O [L-ascorbic acid, reference compound]
ABTS radical scavenging activity [3]: 20% | Anti-oxidant Rank (ABTS radical scavenging activity rank) [3]: 7 | IC50 [3]: 23.8 µM

COc1cc(C(=O)O)ccc1O [vanillic acid, reference compound]
DPPH radical scavenging activity (in words) [4]: weak antioxidant activity

N-(1-oxohexadecyl) glycyl-L-histidyl-L-lysine [PTP-1, reference compound]
increase of collagen I mRNA level compared with the negative control group [5]: 135%

QHGV [glutamine–histidine–glycine–valine]
increase of collagen I mRNA level compared with the negative control group [5]: 26% | reduction of LPS-induced iNos mRNA level [1]: reduced | Anti-oxidant Rank (ABTS radical scavenging activity rank) [3]: 8 | ABTS antioxidant activity (in words) [3]: did not exhibit high antioxidant activity | cytotoxicity (in words) (HaCaT cells): no cytotoxicity | increase of collagen I protein level [6]: 147% | reduction of LPS-induced Cox-2 mRNA level [2]: reduced

caffeoyl-QHGV [Ca-QHGV]
reduction of LPS-induced iNos mRNA level [1]: 26% | ABTS radical scavenging activity [3]: 33% | Anti-oxidant Rank (ABTS radical scavenging activity rank) [3]: 5 | IC50 [3]: 16.7 µM | decrease of p-p38 level (phospho-p38): 5% | decrease of p-ERK level (phospho-ERK 1/2): 9% | decrease of p-JNK level (phospho-JNK): 10% | increase of collagen I protein level [6]: 316% | reduction of LPS-induced Cox-2 mRNA level [2]: 8%

feruloyl-QHGV [Fe-QHGV]
reduction of LPS-induced iNos mRNA level [1]: did not significantly affect | ABTS radical scavenging activity [3]: 31% | Anti-oxidant Rank (ABTS radical scavenging activity rank) [3]: 6 | IC50 [3]: 17.8 µM | decrease of p-JNK level (phospho-JNK): 23% | increase of collagen I protein level [6]: 457% | reduction of LPS-induced Cox-2 mRNA level [2]: 11%

galloyl-QHGV [Ga-QHGV]
increase of collagen I mRNA level compared with the negative control group [5]: 140% | reduction of LPS-induced iNos mRNA level [1]: 60% | ABTS radical scavenging activity [3]: 74% | Anti-oxidant Rank (ABTS radical scavenging activity rank) [3]: 2 | IC50 [3]: 4.58 µM | decrease of intracellular ROS levels compared to the LPS-treated group [7]: reduced LPS-induced ROS levels to the greatest extent | cytotoxicity (in words) (HaCaT cells): no cytotoxicity | decrease of p-JNK level (phospho-JNK): 18% | increase of collagen I protein level [6]: 354% | reduction of LPS-induced Cox-2 mRNA level [2]: 22%

glycyl-L-histidyl-L-lysine-Cu (II) [GHK-Cu, reference compound]
reduction of LPS-induced iNos mRNA level [1]: 45% | reduction of LPS-induced Cox-2 mRNA level [2]: 24%

sinapoyl-QHGV [Si-QHGV]
reduction of LPS-induced iNos mRNA level [1]: did not significantly affect | ABTS radical scavenging activity [3]: 27% | decrease of p-ERK level (phospho-ERK 1/2): 5% | increase of collagen I protein level [6]: 363% | reduction of LPS-induced Cox-2 mRNA level [2]: 15%

vanilloyl-QHGV [Va-QHGV]
reduction of LPS-induced iNos mRNA level [1]: did not significantly affect | ABTS radical scavenging activity [3]: 34% | Anti-oxidant Rank (ABTS radical scavenging activity rank) [3]: 4 | IC50 [3]: 16.4 µM | DPPH radical scavenging activity (in words) [4]: did not exhibit antioxidant effects | decrease of p-ERK level (phospho-ERK 1/2): 24% | increase of collagen I protein level [6]: 163% | reduction of LPS-induced Cox-2 mRNA level [2]: 16%

β-alanyl-L-histidine [carnosine, reference compound]
reduction of LPS-induced iNos mRNA level [1]: no significant effect | reduction of LPS-induced Cox-2 mRNA level [2]: no significant effect

γ-L-glutamyl-L-cysteinyl-glycine [Glutathione, reference compound]
Anti-oxidant Rank (ABTS radical scavenging activity rank) [3]: 3 | IC50 [3]: 14.7 µM
